In PubChem BioAssay (NCI) one finds GI50 and TGI data, which are given here for 13 compounds.

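Cells were grown in 96-well plates and exposed to each compound for 48 hours at five concentrations; endpoints were interpolated linearly between bracketing concentrations, or set to the highest concentration if not reached. Abbreviation: GI50, concentration required for 50% inhibition of growth. TGI denotes the concentration required for complete inhibition of growth.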 Bounds are passed on as bounds.

Some test systems named below: T-47D breast; BT-549 breast; ACHN renal; SF-295 CNS; HT29 colon; A498 renal; SK-MEL-28 melanoma; MALME-3M melanoma; U251 CNS; HCT-116 colon.
Common to all, as to test: NCI tumour cell line growth inhibition, 48 h

As to `COc1ccc(C2CC(c3cccc(Nc4ccncc4)c3)=NN2c2cc(Cl)cc(Cl)c2)cc1` (centres undefined), the GI50 with T-47D breast is 1.96 µM; in the experiment with BT-549 breast it was 5.57 µM; in the experiment with ACHN renal, 1.7 µM; in the experiment with SF-295 CNS, 1.73 µM; in the experiment with HT29 colon, 2.26 µM; in the experiment on A498 renal, 3.06 µM. Besides, the GI50 with SK-MEL-28 melanoma is 1.74 µM. In addition, the TGI in the experiment on T-47D breast was determined as 4.43 µM; with BT-549 breast it was 24.8 µM; with ACHN renal, 3.08 µM; with SF-295 CNS, 3.14 µM; with HT29 colon, 5.46 µM; with A498 renal, 18 µM. Further, in the experiment with SK-MEL-28 melanoma, the TGI was determined as 3.36 µM.

On to `O=[N+]([O-])c1ccc(Cl)c(C=NC23CC4CC(CC(C4)C2)C3)c1`, for which the TGI with T-47D breast, with BT-549 breast, in the experiment on ACHN renal, in the experiment with MALME-3M melanoma, in the experiment with U251 CNS and in the experiment with HCT-116 colon was over 10 µM throughout. In addition, the TGI with SF-295 CNS, with HT29 colon, in the experiment on A498 renal and in the experiment with SK-MEL-28 melanoma was over 10 µM throughout.

For `Cc1ccc(/C=N/n2c(=O)[nH]c3ccccc3c2=O)cc1`, the TGI with T-47D breast, in the experiment with BT-549 breast, in the experiment with ACHN renal, with U251 CNS, in the experiment on HCT-116 colon and with SF-295 CNS was over 100 µM in each case. Also, the TGI in the experiment with HT29 colon, in the experiment with A498 renal and in the experiment on SK-MEL-28 melanoma was over 100 µM in each case.

For the compound `S=C(NCc1ccccc1)c1nc[nH]c1C(=S)NCc1ccccc1`, the TGI in the experiment with T-47D breast is 17.4 µM; with BT-549 breast, 27.2 µM; with ACHN renal, 7.51 µM; with MALME-3M melanoma, 24.6 µM; with U251 CNS, 18.4 µM; in the experiment on HCT-116 colon, 17.9 µM. The TGI with SF-295 CNS was found to be 17.6 µM; in the experiment on HT29 colon, 22.7 µM; with SK-MEL-28 melanoma, 26.9 µM.

Take `O=C(CC(=O)Nc1cccc(C(=O)O)c1)Nc1cccc(C(=O)O)c1`: the TGI in the experiment on T-47D breast, with BT-549 breast, in the experiment with ACHN renal, in the experiment on U251 CNS, in the experiment with HCT-116 colon and in the experiment on SF-295 CNS was over 100 µM in each case. The TGI in the experiment with HT29 colon, with A498 renal and in the experiment with SK-MEL-28 melanoma was over 100 µM in each case.

With `CCCCCN=Cc1c(O)c(O)c(C(C)C)c2cc(C)c(-c3c(C)cc4c(C(C)C)c(O)c(O)c(C=NCCCCC)c4c3O)c(O)c12`, the TGI with T-47D breast is 25.8 µM; in the experiment on BT-549 breast, 38.7 µM; in the experiment with ACHN renal, 31.3 µM; in the experiment with MALME-3M melanoma it was 33.1 µM; with U251 CNS it was 18 µM; in the experiment with HCT-116 colon, over 100 µM. Moreover, the values for the TGI in the experiment with HT29 colon, with A498 renal and with SK-MEL-28 melanoma were over 100 µM, over 100 µM and 26.5 µM, respectively.

As to `O=[N+]([O-])c1ccc(C=C2C(Cl)=C(Cl)C(Cl)=C2Cl)cc1`, the GI50 was 2.16 µM in the experiment with T-47D breast; 4.75 µM in the experiment with BT-549 breast; 2.59 µM in the experiment on MALME-3M melanoma; 1.77 µM in the experiment on U251 CNS; 1.79 µM in the experiment with HCT-116 colon; 3.47 µM in the experiment on SF-295 CNS. Besides, the GI50 is 2.64 µM in the experiment with HT29 colon, 5.13 µM in the experiment with A498 renal and 3.81 µM with SK-MEL-28 melanoma. The TGI is 5.46 µM in the experiment with T-47D breast; over 100 µM in the experiment with BT-549 breast; 9.26 µM with MALME-3M melanoma; 3.46 µM in the experiment with U251 CNS; 3.37 µM with HCT-116 colon; 76.6 µM with SF-295 CNS. Further, the TGI was 7.14 µM with HT29 colon, 26.6 µM in the experiment with A498 renal and 74.4 µM in the experiment with SK-MEL-28 melanoma.

On to `CC(C)(C)OC(=O)NCC(O)CNC(=O)OC(C)(C)C`, for which the TGI with T-47D breast, with BT-549 breast, with ACHN renal, with MALME-3M melanoma, with U251 CNS and in the experiment on HCT-116 colon was over 100 µM in each case. Moreover, the TGI with SF-295 CNS, in the experiment on A498 renal and in the experiment on SK-MEL-28 melanoma was over 100 µM throughout.

For the compound `Clc1c(Cl)c(Cl)c2nn(C3CCCO3)nc2c1Cl` (centres undefined), the TGI in the experiment on T-47D breast was over 100 µM; with BT-549 breast, 80.5 µM; in the experiment on MALME-3M melanoma, over 100 µM; in the experiment with U251 CNS, over 100 µM; in the experiment with HCT-116 colon, over 100 µM; in the experiment with SF-295 CNS, over 100 µM. For the same compound, the TGI in the experiment on HT29 colon and in the experiment on A498 renal was over 100 µM in each case.

In the case of `N#C/C(C(=O)Nc1ccccc1)=C(/N)N1CCOCC1`, the TGI in the experiment with T-47D breast, in the experiment with BT-549 breast, in the experiment on ACHN renal, in the experiment on U251 CNS, with HCT-116 colon and in the experiment with SF-295 CNS was over 100 µM each time. For the same compound, the TGI in the experiment on A498 renal and in the experiment with SK-MEL-28 melanoma was over 100 µM throughout.

`COC(=O)Cc1cc(O)c(C/C=C(\C)CC/C=C(\C)C(O)C(=O)C=C(C)C)cc1O` (centres undefined): the TGI in the experiment on T-47D breast amounted to 43.2 µM; in the experiment with BT-549 breast, 72.8 µM; with ACHN renal, 71 µM; in the experiment on MALME-3M melanoma it was 48.6 µM; with U251 CNS, 35.7 µM; with HCT-116 colon it was 31.1 µM. Further, the TGI in the experiment with SF-295 CNS is 55.1 µM; with HT29 colon, 61.3 µM.

As to `Cc1cc(N(CCC#N)CCC#N)ccc1/C(N=Nc1ccc([N+](=O)[O-])cc1)=N\NC(=O)c1cc(Cl)ccc1C(=O)c1ccccc1`, the TGI with T-47D breast is 50.3 µM; in the experiment on BT-549 breast, over 100 µM; with ACHN renal, over 100 µM; in the experiment on MALME-3M melanoma it was 31.1 µM; in the experiment with U251 CNS, over 100 µM; in the experiment with HCT-116 colon it was 23.6 µM. The TGI in the experiment on SF-295 CNS was over 100 µM; in the experiment on HT29 colon, 27.4 µM; in the experiment on SK-MEL-28 melanoma, over 100 µM.

Take `CCn1c(-c2cc(OC)cc(OC)c2)nc2c1C(=O)c1ccccc1C2=O`: the TGI in the experiment on T-47D breast, in the experiment on BT-549 breast, in the experiment on ACHN renal, in the experiment with MALME-3M melanoma, with U251 CNS and in the experiment with HCT-116 colon was over 100 µM throughout. The TGI in the experiment on SF-295 CNS, in the experiment with HT29 colon and in the experiment on SK-MEL-28 melanoma was over 100 µM each time.
